Assay results as given in patent US12145923B2, “Tetrahydroisoquinoline compound, preparation method therefor, pharmaceutical composition containing same, and use thereof” (SHANGHAI INSTITUTE OF MATERIA MEDICA, CHINESE ACADEMY OF …, priority 2018, dated 2024).
“And” between values parts separate entries of the source, which are not always exact repeats. Equal entries are not always repeated.

Key:
RAW 264.7 cells = experiment: Cytotoxicity on RAW 264.7 cells (CCK-8 method); type: cell-based, mouse
TNF-α secretion in PBMC = experiment: Inhibition of LPS-stimulated TNF-α secretion in PBMC (ELISA); type: cell-based; details: Homo sapiens, PBMC; for inhibition at 1 µM / inhibition at 10 µM: read-out: Inhibition rate %
Text: According to the difference in cell density in human blood, PBMC (peripheral blood mononuclear cell, PBMC) was directly separated and purified by gradient centrifugation using lymphocyte separation fluid. The cell type was mononuclear cells in blood, mainly including lymphocytes (T/B), monocytes, macrophages, dendritic cells and other minor cell types, of which lymphocytes account for a large part, which can directly in vitro simulate the blood immune environment.
PBMC cells isolated from human blood were implanted into 96-well plates at 2*10^5/ml; compounds in gradients were added, with at least three replicates for each gradient; After the PBMCs were incubated at 37° C., 5% CO2 for 1 hour, LPS was added (the final concentration was 10 ug/ml) to stimulate PBMC to express TNF-α, and incubated for another 18-20 h at 37° C., 5% C02. The 96-well plate was collected. The background control with no stimulant and stimulation control wells were also set, with a total volume of 200 μl. The culture supernatant was collected by centrifugation, and the expression level of TNF-α in the culture supernatant was detected by ELISA.

[1] = tested on: tumor necrosis factor-α secretion in RAW 264.7 cells; experiment: Inhibition of LPS-stimulated tumor necrosis factor-α secretion in RAW 264.7 cells (ELISA); type: cell-based, mouse; details: Mus musculus, RAW264.7, 4 h, read-out: Tumor necrosis factor-α inhibition rate/%
[2] = biological target: Human PDE4D catalytic domain (Homo sapiens (Human), UniProt Q08499); experiment: Scintillation Proximity Assay (SPA), inhibition of PDE4D catalytic domain activity; type: biochemical; details: Compound concentration: 1 μM; read-out: PDE4D enzyme activity inhibition rate %
Chain of Human PDE4D catalytic domain (Q08499 386-715): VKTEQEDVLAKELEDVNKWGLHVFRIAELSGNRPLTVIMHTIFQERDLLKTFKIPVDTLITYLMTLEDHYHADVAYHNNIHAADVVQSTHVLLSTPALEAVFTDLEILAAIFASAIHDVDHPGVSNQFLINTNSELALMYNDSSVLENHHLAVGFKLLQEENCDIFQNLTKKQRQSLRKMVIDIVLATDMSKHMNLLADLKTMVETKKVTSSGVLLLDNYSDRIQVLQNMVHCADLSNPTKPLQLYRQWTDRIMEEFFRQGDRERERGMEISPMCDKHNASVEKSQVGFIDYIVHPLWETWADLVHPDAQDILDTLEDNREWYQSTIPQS
Experimental: The scintillation Proximity Assay (SPA) method was used to determine the inhibitory effect of compounds on the activity of PDE4D catalytic domain. Human PDE4D catalytic domain protein was obtained by expression and purification in E. coli. […] [^3H]-cAMP, scintillation beads (RPNQO150, Perkin Elmer), and 96-well scintillation microplates (Isoplate-96, Perkin Elmer) were purchased from Perkin Elmer Company.
Finally, 10 μl [^3H]-cAMP (0.005 μCi/μl) was added and incubated for 30 min at 30° C. in a water bath. 50 μl SPA beads was added to quench the reaction, shaked appropriately, and stood for 20 minutes. A microplate scintillation counter was used.

Compound	Cell survival rate/% (RAW 264.7 cells; RAW 264.7, 0.5 μM)	Cell survival rate/% (RAW 264.7 cells; RAW 264.7, 5 μM)	Cell survival rate/% (RAW 264.7 cells; RAW 264.7, 50 μM)	IC50 (TNF-α secretion in PBMC)	inhibition at 1 µM (TNF-α secretion in PBMC)	inhibition at 10 µM (TNF-α secretion in PBMC)	inhibition at 0.5 µM [1]	inhibition at 5 µM [1]	inhibition at 50 µM [1]	inhibition at 1 µM [2]
COc1cc2c(cc1OC)[C@@H](CCc1c[nH]c3ccccc13)N(C=O)CC2 [(R)-A1, (R)-1-(2-(1H-indol-3-yl)ethyl)-6,7-dimethoxy-3,4-dihydroisoquinoline-2(1H)-formaldehyde]	102.7% and 135.9%	106.2% and 110.1%	89.3% and 122.5%	–	–	–	–	–	–	–
COc1cc2c(cc1OCC1CC1)[C@H](CCc1c[nH]c3ccccc13)N(C=O)CC2 [(S)-A3, (S)-1-(2-(1H-indol-3-yl)ethyl)-7-(cyclopropyl-methoxy)-6-methoxy-3,4-dihydroisoquinoline-2(1H)-formaldehyde]	110.9%	86.5%	77.3%	2650 nM	31.2%	76.6%	-2.9%	-3.5%	54.6%	–
CCOc1cc2c(cc1OC)CCN(C=O)[C@H]2CCc1c[nH]c2ccccc12 [(S)-A4, (S)-1-(2-(1H-indol-3-yl)ethyl)-7-ethoxy-6-methoxy-3,4-dihydroisoquinoline-2(1H)-formaldehyde]	103%	100.8%	98.1%	–	–	–	–	–	–	–
COc1cc2c(cc1OCC1CC1)[C@H](CCc1c[nH]c3cc(C)ccc13)N(C=O)CC2 [(S)-C4, (S)-7-(cyclopropylmethoxy)-6-methoxy-1-(2-(6-methyl-1H-indol-3-yl)ethyl)-3,4-dihydroisoquinoline-2(1H)-formaldehyde]	97.6%	71.8%	77.3%	2120 nM	32%	76.9%	-30.1%	-25.6%	54.5%	–
CCOc1cc2c(cc1OC)CCN(C=O)[C@H]2Cc1c[nH]c2ccccc12 [(S)-C10, (S)-1-((1H-indol-3-yl)methyl)-7-ethoxy-6-methoxy-3,4-dihydroisoquinoline-2(1H)-formaldehyde]	89.1%	84.6%	104.1%	–	–	–	–	–	–	–
COc1cc2c(cc1OC)[C@H](Cc1c[nH]c3ccccc13)N(C(=O)CS(C)(=O)=O)CC2 [(S)-C13, (S)-1-(1-((1H-indol-3-yl)methyl)-6,7-dimethoxy-3,4-dihydroisoquinoline-2(1H)-yl)-2-(methanesulfonyl)ethane-1-one]	111.2%	91.4%	101.7%	–	–	29.9%	-3%	-13.7%	-37.3%	–
CCOc1cc2c(cc1OC)CCN(CCS(C)(=O)=O)[C@H]2Cc1c[nH]c2ccccc12 [(S)-C14, (S)-1-((1H-indol-3-yl)methyl)-7-ethoxy-6-methoxy-2-(2-(methylsulfonyl)ethyl)-1,2,3,4-tetrahydroisoquinoline]	128.3%	98.8%	97.3%	–	17%	54.5%	2.4%	-2.2%	13.6%	–
CCOc1cc2c(cc1OC)CCN(C(=O)CS(C)(=O)=O)[C@H]2Cc1c[nH]c2ccccc12 [(S)-C15, (S)-1-(1-((1H-indol-3-yl)methyl)-7-ethoxy-6-methoxy-3,4-dihydroisoquinoline-2(1H)-yl)-2-(methanesulfonyl)ethane-1-one]	107.3%	110.5%	101.2%	–	–	-23.9%	18%	-4.5%	-37.7%	–
CCOc1cc2c(cc1OC)CCN(C(=O)COC)[C@H]2Cc1c[nH]c2ccccc12 [(S)-C16, (S)-1-(1-((1H-indol-3-yl)methyl)-7-ethoxy-6-methoxy-3,4-dihydroisoquinoline-2(1H)-yl)-2-methoxyethane-1-one]	123.2%	133.1%	113.1%	–	–	1.89%	2.6%	12.7%	10.4%	–
CCOc1cc2c(cc1OC)CCN(C=O)[C@H]2Cc1c[nH]c2ccc(C)cc12 [(S)-C17, (S)-7-ethoxy-6-methoxy-1-((5-methyl-1H-indol-3-yl)methyl)-3,4-dihydroisoquinoline-2(1H)-formaldehyde]	101.7%	87.3%	103.9%	–	–	18.8%	-32.2%	-33.7%	-13.4%	–
CCOc1cc2c(cc1OC)CCN(C=O)[C@H]2Cc1c[nH]c2ccc(OC)cc12 [(S)-C18, (S)-7-ethoxy-6-methoxy-1-((5-methoxy-1H-indol-3-yl)methyl)-3,4-dihydroisoquinoline-2(1H)-formaldehyde]	118%	111.5%	112.9%	–	–	39.4%	15.8%	14.5%	38.8%	–
CCOc1cc2c(cc1OC)CCN(S(=O)(=O)c1ccccc1)[C@H]2CCc1c[nH]c2ccc(OC)cc12 [(S)-C47, (S)-7-ethoxy-6-methoxy-1-(2-(5-methoxy-1H-indol-3-yl)ethyl)-2-phenylsulfonyl-1,2,3,4-tetrahydroisoquinoline]	–	–	–	–	–	–	–	–	–	49.4%
CCOc1cc2c(cc1OC)CCN(S(=O)(=O)C1CC1)[C@H]2CCc1c[nH]c2ccc(OC)cc12 [(S)-C48, (S)-7-ethoxy-6-methoxy-1-(2-(5-methoxy-1H-indol-3-yl)ethyl)-2-cyclopropylsulfonyl-1,2,3,4-tetrahydroisoquinoline]	–	–	–	–	–	–	–	–	–	62%
CCOc1cc2c(cc1OC)CCN(S(=O)(=O)C1CCCCC1)[C@H]2CCc1c[nH]c2ccc(OC)cc12 [(S)-C49, (S)-7-ethoxy-6-methoxy-1-(2-(5-methoxy-1H-indol-3-yl)ethyl)-2-cyclohexylsulfonyl-1,2,3,4-tetrahydroisoquinoline]	–	–	–	–	–	–	–	–	–	70.8%
CCOc1cc2c(cc1OC)CCN(S(=O)(=O)c1cccc(F)c1)[C@H]2CCc1c[nH]c2ccc(OC)cc12 [(S)-C50, (S)-7-ethoxy-6-methoxy-1-(2-(5-methoxy-1H-indol-3-yl)ethyl)-2-(3-fluorophenyl)sulfonyl-1,2,3,4-tetrahydroisoquinoline]	–	–	–	–	–	–	–	–	–	49.4%
CCOc1cc2c(cc1OC)CCN(S(=O)(=O)c1ccc(F)c(F)c1)[C@H]2CCc1c[nH]c2ccc(OC)cc12 [(S)-C51, (S)-7-ethoxy-6-methoxy-1-(2-(5-methoxy-1H-indol-3-yl)ethyl)-2-(3,4-difluorophenyl)sulfonyl-1,2,3,4-tetrahydroisoquinoline]	–	–	–	–	–	–	–	–	–	37.9%
CCOc1cc2c(cc1OC)CCN(S(=O)(=O)c1ccc(F)cc1F)[C@H]2CCc1c[nH]c2ccc(OC)cc12 [(S)-C52, (S)-7-ethoxy-6-methoxy-1-(2-(5-methoxy-1H-indol-3-yl)ethyl)-2-(2,4-difluorophenyl)sulfonyl-1,2,3,4-tetrahydroisoquinoline]	–	–	–	–	–	–	–	–	–	36.8%
CCOc1cc2c(cc1OC)CCN(S(=O)(=O)CC)[C@H]2CCc1c[nH]c2ccc(OC)cc12 [(S)-C53, (S)-7-ethoxy-6-methoxy-1-(2-(5-methoxy-1H-indol-3-yl)ethyl)-2-ethylsulfonyl-1,2,3,4-tetrahydroisoquinoline]	–	–	–	–	–	–	–	–	–	56.3%
COc1cc2c(cc1OCC1CC1)C(CCc1c[nH]c3ccccc13)N(C=O)CC2 (stereo not drawn) [Compound A3, 1-(2-(1H-indol-3-yl)ethyl)-7-(cyclopropyl-methoxy)-6-methoxy-3,4-dihydroisoquinoline-2(1H)-formaldehyde]	96.9%	108.2%	94%	5690 nM	0.84%	65.7%	-0.5%	-15.5%	27.3%	–
CCOc1cc2c(cc1OC)CCN(C=O)C2CCc1c[nH]c2ccccc12 (stereo not drawn) [Compound A4, 1-(2-(1H-indol-3-yl)ethyl)-7-ethoxy-6-methoxy-3,4-dihydroisoquinoline-2(1H)-formaldehyde]	100.6%	113.4%	95.3%	–	–	–	–	–	–	–
CCOc1cc2c(cc1OC)CCN(C=O)C2Cc1c[nH]c2ccccc12 (stereo not drawn) [Compound C10, 1-((1H-indol-3-yl)methyl)-7-ethoxy-6-methoxy-3,4-dihydroisoquinoline-2(1H)-formaldehyde]	119.5%	111.4%	94%	–	–	–	–	–	–	–
COCC(=O)N1CCc2cc(OC)c(OC)cc2C1Cc1c[nH]c2ccccc12 (stereo not drawn) [Compound C11, 1-(1-((1H-indol-3-yl)methyl)-6,7-dimethoxy-3,4-dihydroisoquinoline-2(1H)-yl)-2-methoxyethane-1-one]	97.9%	91.2%	87.3%	–	39.9%	50%	-12.7%	-11.9%	20.1%	–
COc1cc2c(cc1OC)C(Cc1c[nH]c3ccccc13)N(CCS(C)(=O)=O)CC2 (stereo not drawn) [Compound C12, 1-((1H-indol-3-yl)methyl)-6,7-dimethoxy-2-(2-(methylsulfonyl)ethyl)-1,2,3,4-tetrahydroisoquinoline]	93.6%	115.7%	103.8%	–	45.4%	52.7%	-15.1%	-7.9%	25.5%	–
